Earlier results in patent US20020022024A1, “Hemoglobinase inhibitors and methods of use” (priority 2000, published 2002).

How the values were obtained:
[1] = target: T1, S. mansoni cathepsin B, Sm31 (Schistosoma mansoni, UniProt P25792); conditions: short synthetic substrate; Klinkert et al. 1994
T1 sequence (P25792 89-340): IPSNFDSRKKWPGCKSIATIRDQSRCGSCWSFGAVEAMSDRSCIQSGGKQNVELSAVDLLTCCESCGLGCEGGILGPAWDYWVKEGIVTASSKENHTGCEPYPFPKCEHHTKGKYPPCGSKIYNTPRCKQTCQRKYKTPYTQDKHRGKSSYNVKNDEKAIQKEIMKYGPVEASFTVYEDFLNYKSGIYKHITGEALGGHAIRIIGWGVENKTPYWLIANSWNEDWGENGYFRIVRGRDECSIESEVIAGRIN

[2] = test system: schistosomules; conditions: added to culture media, in comparison to controls; Zerda et al. 1988

Row | inhibitor potency on Sm31 relative to a derivative of E64 [1] | SMILES | death rate of schistosomules [2]
1 | more potent inhibitor of Sm31 | CSCCC(NC(=O)C(Cc1c[nH]c2ccccc12)NC(=O)OCc1ccccc1)C(=O)C=[N+]=[N-] (stereo not drawn) [Z-Trp-Met-CHN2] | –
2 | – | CC(C)C[C@H](NC(=O)[C@H]1O[C@@H]1C(=O)O)C(=O)NCCCCN [EP459] | increased the death rate of schistosomules
